The text below walks through data of US20090069300A1, “ISOQUINOLINYL AND ISOINDOLINYL DERIVATIVES AS HISTAMINE-3 ANTAGONISTS” (Wyeth, priority 2007, published 2009).

Counter-ions that a name gives are not always drawn. Where only a bound is given, the exact number is not on record here.

Turning to `COC[C@H](C)NC(=O)c1ccc(-c2ccc3c(c2)CCN(CCN2CCCC2)C3=O)cc1` (as salt: hydrochloride) [Example 126, N-[(1S)-2-methoxy-1-methylethyl]-4-[1-oxo-2-(2-pyrrolidin-1-ylethyl)-1,2,3,4-tetrahydroisoquinolin-6-yl]benzamide], the melting point – broadly, the temperature of the solid-liquid transition – was in the range of 232 to 233 °C. The result for `N#Cc1ccc(Oc2ccc3c(c2)CCN(CCN2CCCC2)C3=O)cc1` (as salt: hydrochloride) [Example 50, 4-{[1-oxo-2-(2-pyrrolidin-1-ylethyl)-1,2,3,4-tetrahydroisoquinolin-6-yl]oxy}benzonitrile] reads 146 to 147 °C. In turn, `C[C@@H]1CCCN1CCN1CCc2cc(C(=O)N3Cc4ccccc4C3)ccc2C1=O` (as salt: hydrochloride) [Example 152, 6-(1,3-dihydro-2H-isoindol-2-ylcarbonyl)-2-{2-[(2R)-2-methylpyrrolidin-1-yl]ethyl}-3,4-dihydroisoquinolin-1(2H)-one] showed a melting point of 109 to 110 °C. Compound `COC[C@@H]1CCCN1C(=O)c1ccc(-c2ccc3c(c2)CCN(CCN2CCCC2)C3=O)cc1` (as salt: hydrochloride) [Example 128, 6-(4-{[(2S)-2-(methoxymethyl)pyrrolidin-1-yl]carbonyl}phenyl)-2-(2-pyrrolidin-1-ylethyl)-3,4-dihydroisoquinolin-1(2H)-one] gave a melting point of 193 to 195 °C. Compound `CN(C)C(=O)c1ccc(-c2ccc3c(c2)CCN(CCN2CCCC2)C3)cc1` (as salt: hydrochloride) [Example 183, N,N-dimethyl-4-[2-(2-pyrrolidin-1-ylethyl)-1,2,3,4-tetrahydroisoquinolin-6-yl]benzamide] returned a melting point of 248 to 250 °C. Turning to `Fc1ccc(-c2ccc3c(c2)CCN(CCN2CCCC2)C3)cc1` [Example 177], the melting point is 250 to 251 °C. The result for `C[C@@H]1CCCN1CCN1CCc2cc(OCc3ccc(C#N)cc3)ccc2C1=O` (as salt: hydrochloride) [Example 120, (R)-4-((2-(2-(2-Methylpyrrolidin-1-yl)ethyl)-1-oxo-1,2,3,4-tetra-hydroisoquinolin-6-yloxy)methyl)benzonitrile hydrochloride] reads 212 to 214 °C; that for `O=C(c1ccc(-c2ccc3c(c2)CCN(CCN2CCCC2)C3)cc1)N1CCCCC1` (as salt: hydrochloride) [Example 185, 6-[4-(piperidin-1-ylcarbonyl)phenyl]-2-(2-pyrrolidin-1-ylethyl)-1,2,3,4-tetrahydroisoquinoline], 270 to 272 °C. In the case of `C[C@@H]1CCCN1CCN1Cc2ccc(-c3ccc(F)cc3)cc2C1` (as salt: hydrochloride), the melting point is 250 to 251 °C.

Turning to `C[C@@H]1CCCN1CCN1CCc2cc(C(=O)NC3CCCCC3)ccc2C1=O` (as salt: hydrochloride) [Example 147, N-cyclohexyl-2-{2-[(2R)-2-methylpyrrolidin-1-yl]ethyl}-1-oxo-1,2,3,4-tetrahydroisoquinoline-6-carboxamide], the melting point lay within 140 to 141 °C.

On to `N#Cc1cccc(-c2ccc3c(c2)CCN(CCCN2CCCC2)C3=O)c1` (as salt: hydrochloride) [Example 33, 3-[1-oxo-2-(3-pyrrolidin-1-ylpropyl)-1,2,3,4-tetrahydroisoquinolin-6-yl]benzonitrile], for which the melting point fell in the range of 175 to 176 °C. In turn, `O=C(c1ccc2c(c1)CCN(CCN1CCCC1)C2=O)N1CCCC1` (as salt: hydrochloride) [Example 38, 6-(pyrrolidin-1-ylcarbonyl)-2-(2-pyrrolidin-1-ylethyl)-3,4-dihydroisoquinolin-1(2H)-one hydrochloride] returned a melting point of 194 to 196 °C. For `N#Cc1ccc(Oc2ccc3c(c2)CCN(CCN2CCCC2)C3=O)cn1` (as salt: hydrochloride) [Example 52, 5-{[1-oxo-2-(2-pyrrolidin-1-ylethyl)-1,2,3,4-tetrahydroisoquinolin-6-yl]oxy}pyridine-2-carbonitrile] the value was 203 to 205 °C; for `CN1CCc2cc(-c3ccc4c(c3)CCN(CCN3CCCC3)C4=O)ccc2C1=O` (as salt: hydrochloride) [Example 158, 2-methyl-2′-(2-(pyrrolidin-1-yl)ethyl)-3,3′,4,4′-tetrahydro-6,6′-biisoquinoline-1,1′(2H,2′H)-dione hydrochloride], 225 to 226 °C; for `C[C@@H]1CCCN1CCN1CCc2cc(-c3ccc(F)cc3)ccc2C1=O` (as salt: hydrochloride) [Example 40, 6-(4-fluorophenyl)-2-{2-[(2R)-2-methylpyrrolidin-1-yl]ethyl}-3,4-dihydroisoquinolin-1(2H)-one], 236 to 238 °C. `O=C(NCC1CC1)c1ccc(-c2ccc3c(c2)CCN(CCN2CCCC2)C3=O)cc1` (as salt: hydrochloride) [Example 60, N-(cyclopropylmethyl)-4-[1-oxo-2-(2-pyrrolidin-1-ylethyl)-1,2,3,4-tetrahydroiso-quinolin-6-yl]benzamide]: the melting point fell in the range of 216 to 218 °C. In turn, `O=C1c2ccc(N3CCCCC3)cc2CCN1CCN1CCCCC1` (as salt: hydrochloride) [Example 163, 6-(piperidin-1-yl)-2-(2-(piperidin-1-yl)ethyl)-3,4-dihydroisoquinolin-1(2H)-one] showed a melting point of 245 to 246 °C. For the compound `C[C@@H]1CCCN1CCN1CCc2cc(N3CCCCC3)ccc2C1=O` (as salt: hydrochloride) [Example 161, 2-{2-[(2R)-2-methylpyrrolidin-1-yl]ethyl}-6-piperidin-1-yl-3,4-dihydroisoquinolin-1(2H)-one], the melting point was > 225 °C. The result for `C[C@@H]1CCCN1CCN1CCc2cc(C(=O)NC3CCCC3)ccc2C1=O` (as salt: hydrochloride) [Example 149, N-cyclopentyl-2-{2-[(2R)-2-methylpyrrolidin-1-yl]ethyl}-1-oxo-1,2,3,4-tetrahydroisoquinoline-6-carboxamide] reads 219 to 220 °C; that for `O=C(Nc1nccs1)c1ccc(-c2ccc3c(c2)CCN(CCN2CCCC2)C3=O)cc1` (as salt: hydrochloride) [Example 130, 4-[1-oxo-2-(2-pyrrolidin-1-ylethyl)-1,2,3,4-tetrahydroisoquinolin-6-yl]-N-1,3-thiazol-2-ylbenzamide], 284 to 285 °C; that for `CON(C)C(=O)c1ccc(-c2ccc3c(c2)CCN(CCN2CCCC2)C3=O)cc1` (as salt: hydrochloride) [Example 102, N-methoxy-N-methyl-4-(1-oxo-2-(2-(pyrrolidin-1-yl)ethyl)-1,2,3,4-tetrahydroisoqui-nolin-6-yl)benzamide], 190 to 191 °C. For the compound `CCN(CC)C(=O)c1ccc(-c2ccc3c(c2)CCN(CCN2CCCC2)C3=O)cc1` (as salt: hydrochloride) [Example 62, N,N-diethyl-4-[1-oxo-2-(2-pyrrolidin-1-ylethyl)-1,2,3,4-tetrahydroisoquinolin-6-yl]benzamide], the melting point was 177 to 178 °C. `CC(C)OCCNC(=O)c1ccc(-c2ccc3c(c2)CCN(CCN2CCCC2)C3=O)cc1` (as salt: hydrochloride) [Example 70, N-(2-isopropoxyethyl)-4-[1-oxo-2-(2-pyrrolidin-1-ylethyl)-1,2,3,4-tetrahydroisoquinolin-6-yl]benzamide]: the melting point fell in the range of 164 to 166 °C.
